Series [1] is described as follows: refractive index (Na D-line) (dimensionless). The following applies: 101.33 kPa, Liquid, Standard Abbe refractometry.
Series [2] in a line: molar heat capacity at constant pressure. The note with it: 101.33 kPa, Liquid, Small sample (50 mg) DSC.
The conditions of series [3]: 101.33 kPa, Liquid.

± gives the expanded uncertainty stated by the source.

Three compounds from the NIST ThermoML archive (doi:10.1021/je600557n) can be followed below.

As usually defined, the refractive index is the speed of light in vacuum divided by its phase velocity in the sample. As usually defined, the mass density is mass per unit of volume. A word on the viscosity: it is the internal friction of a fluid under shear. For the compound `CC1CCCO1` (stereo unspecified) [2-methyltetrahydrofuran], the refractive index in series [1] (293.15 K) is on record as 1.4085 ± 0.0008; in series [1] (303.15 K), 1.4017 ± 0.0007; in series [1] (313.15 K) it was 1.3959 ± 0.0007. Besides, the “molar heat capacity at constant pressure” value in series [2] (288.15 K) came to 153.5 ± 2.4 J/K/mol; in series [2] (293.15 K) it was 155.3 ± 2.4 J/K/mol; in series [2] (298.15 K), 156.9 ± 2.4 J/K/mol; in series [2] (303.15 K), 158.7 ± 2.5 J/K/mol; in series [2] (308.15 K) it was 160.2 ± 2.5 J/K/mol; in series [2] (313.15 K), 162.1 ± 2.5 J/K/mol. In addition, the “molar heat capacity at constant pressure” value in series [2] (318.15 K) was determined as 164.2 ± 2.5 J/K/mol; in series [2] (323.15 K), 166.2 ± 2.6 J/K/mol. Moreover, the mass density in series [3] (293.15 K) stood at 853.15 ± 0.68 kg/m3; in series [3] (303.15 K), 842.8 ± 0.7 kg/m3; in series [3] (313.15 K) it was 832.44 ± 0.72 kg/m3. Moreover, the viscosity in series [3] (293.15 K) amounted to 0.492 ± 0.008 mPa·s; in series [3] (303.15 K), 0.443 ± 0.008 mPa·s; in series [3] (313.15 K) it was 0.416 ± 0.007 mPa·s.
For the compound `C[S+](C)[O-]` [dimethyl sulfoxide], the refractive index was 1.4815 ± 0.0007 in series [1] (293.15 K), 1.475 ± 0.0007 in series [1] (303.15 K) and 1.4706 ± 0.0006 in series [1] (313.15 K). Besides, the “molar heat capacity at constant pressure” value in series [2] (288.15 K) stood at 149.9 ± 2.3 J/K/mol; in series [2] (293.15 K), 150.4 ± 2.3 J/K/mol; in series [2] (298.15 K), 151.5 ± 2.3 J/K/mol; in series [2] (303.15 K), 152.2 ± 2.4 J/K/mol; in series [2] (308.15 K), 152.9 ± 2.4 J/K/mol; in series [2] (313.15 K) it was 153.7 ± 2.4 J/K/mol. In addition, the results for the “molar heat capacity at constant pressure” value in series [2] (318.15 K) and in series [2] (323.15 K) were 154.7 ± 2.4 J/K/mol and 155.6 ± 2.4 J/K/mol, respectively. Further, the mass density in series [3] (293.15 K) turned out to be 1100.42 ± 0.23 kg/m3; in series [3] (303.15 K), 1090.41 ± 0.22 kg/m3; in series [3] (313.15 K), 1080.26 ± 0.21 kg/m3. For the same compound, the figures for the viscosity in series [3] (293.15 K), in series [3] (303.15 K) and in series [3] (313.15 K) were 2.213 ± 0.033 mPa·s, 1.812 ± 0.027 mPa·s and 1.513 ± 0.023 mPa·s, respectively.
As to `C1CCOCC1` [tetrahydropyran], the figures for the refractive index in series [1] (293.15 K), in series [1] (303.15 K) and in series [1] (313.15 K) were 1.4235 ± 0.0008, 1.4171 ± 0.0007 and 1.4119 ± 0.0007, respectively. Also, the “molar heat capacity at constant pressure” value in series [2] (288.15 K) was 143.4 ± 2.2 J/K/mol; in series [2] (293.15 K), 145.2 ± 2.3 J/K/mol; in series [2] (298.15 K), 147.8 ± 2.3 J/K/mol; in series [2] (303.15 K) it was 150.2 ± 2.3 J/K/mol; in series [2] (308.15 K) it was 152.6 ± 2.4 J/K/mol; in series [2] (313.15 K), 156 ± 2.4 J/K/mol. For the same compound, the “molar heat capacity at constant pressure” value in series [2] (318.15 K) stood at 157.6 ± 2.4 J/K/mol; in series [2] (323.15 K) it was 159.9 ± 2.5 J/K/mol. For the same compound, the mass density in series [3] (293.15 K) is recorded as 883.79 ± 0.62 kg/m3; in series [3] (303.15 K), 873.95 ± 0.64 kg/m3; in series [3] (313.15 K) it was 863.62 ± 0.66 kg/m3. The values for the viscosity in series [3] (293.15 K), in series [3] (303.15 K) and in series [3] (313.15 K) were 0.875 ± 0.014 mPa·s, 0.752 ± 0.012 mPa·s and 0.658 ± 0.011 mPa·s, respectively.
